Experimental data from patent EP0501713B1, “Optically active aminoketone derivative and method for preparing same” (MITSUI TOATSU CHEMICALS, Inc., priority 1991, dated 1992).

How the values were obtained:
[1] = system: skeletal muscle afferent discharge; experiment: Action to skeletal muscle afferent discharge (musculus triceps surae nerve fiber); type: in vivo, Wistar rats; conditions: i.v., rat, discharge frequency before administration = 100%, tension of 20 g
Excerpt: The musculus triceps surae was separated from each of Wistar rats (9 to 10 weeks old; Japanese rats) under a mixed anesthetic of urethane and α-chlorarose. There were cut out all the branches of the sciatic nerve except the branch which controls the musculus triceps surae. The medulla spinalis was subjected to laminectomy, and roots of L6 or less were cut out. […] A nerve fiber coming from the musculus triceps surae was only separated from the L5 posterior root. A tension of 20 g was applied to the peripheral end of the musculus triceps surae, and each discharge frequency of the nerve was recorded. Assuming that the discharge frequency before the administration is 100%, the discharge frequency of the nerve was expressed in terms of percentage: (100 -(Discharge frequency at most inhibition)/(Discharge frequency before administration)× 100) [formula]
The test compounds were intravenously administered at 6 and 12 mg/kg.

[2] = system: decerebrate rigidity induced by radio frequency lesions of rat brains; experiment: Decerebrate rigidity remission action (method of Ono et al.); type: in vivo, Wistar male rat; conditions: i.v., tension before administration = 100%
Excerpt: Pharmacol., 18, 57 (1987)], the rigidity remission action of the optically active aminoketone derivative of the present invention for the decerebrate rigidity induced by radio frequency lesions of rat brains was investigated.
Each Wistar male rat (body weight: 300-400 g) was anesthetized with ether and then fixed on a stereotaxic apparatus. In accordance with the Pellegrino's stereotaxic brain atlas, the electrodes of a lesion generator (manufactured by Radionics Company) were punctuated to AP: 0, L: ±1.5, V: -3. […] The rigidified rat was fixed in the abdominal position, and the tension of each extension reflex of the extensor of the hind limbs was recorded. Assuming that the tension before the administration was 100%, the rate of rigidity inhibition is expressed in terms of percentage: (100 -(Tension after administration)/(Tension before administration)× 100) [formula]
The test compounds were intravenously administered at 3 and 6 mg/kg.

[3] = Acute toxicity; type: in vivo; conditions: mouse, in vivo, ip, intraperitoneally administered; mice observed 72 hours later
Procedure: (§1) ddy Male mice (body weights: 25-30 g) were used. Each test compound was intraperitoneally administered, and 72 hours later, the mice were observed as to whether they were alive or dead.
(§2) 50% lethal doses LD50 (mg/kg) were calculated.

[4] = system: ddy Male mice; experiment: Acute toxicity; type: in vivo; conditions: intraperitoneally administered; mice observed 72 hours later; 4320 min
Procedure: as §1, §2

Structure (SMILES): CCC(CN1CCCC1)C(=O)c1cc(-c2ccccc2)no1 (racemic) [racemic form, 3-phenyl-5-[2-(1-pyrrolidinylmethyl)butyryl]isoxazole, reference compound]
- Discharge Frequency (%) ([1]; 6 mg/kg): 46%
- Discharge Frequency (%) ([1]; 12 mg/kg): 27%
- Rigidity Inhibition (%) ([2]; 3 mg/kg): 56%
- Rigidity Inhibition (%) ([2]; 6 mg/kg): 65%
- LD50 at 72 h [3]: 445 mg/kg

Structure (SMILES): CCC(CN1CCCC1)C(=O)c1cc(-c2ccccc2)no1 (single isomer, unassigned; (-)) [(-) form, (-)-3-phenyl-5-[2-(1-pyrrolidinylmethyl)butyryl]isoxazole]
- Discharge Frequency (%) ([1]; 6 mg/kg): 83%
- Rigidity Inhibition (%) ([2]; 3 mg/kg): 33%
- Rigidity Inhibition (%) ([2]; 6 mg/kg): 53%
- LD50 [4]: 760 mg/kg

Structure (SMILES): CCC(CN1CCCC1)C(=O)c1cc(-c2ccccc2)no1 (single isomer, unassigned; (+)) [(+) form, (+)-3-phenyl-5-[2-(1-pyrrolidinylmethyl)butyryl]isoxazole]
- Discharge Frequency (%) ([1]; 6 mg/kg): 28%
- Discharge Frequency (%) ([1]; 12 mg/kg): 14%
- Rigidity Inhibition (%) ([2]; 3 mg/kg): 59%
- Rigidity Inhibition (%) ([2]; 6 mg/kg): 78%
- LD50 at 72 h [3]: 386 mg/kg
